{"source": "patent US11058650B2", "about": "“Fatty acid amides for the prevention and/or treatment of steatohepatitis” (FUNDACIÓN RÚBLICA ANDALUZA PARA LA INVESTIGACIÓN DE MÁLAGA …, priority 2014, dated 2021)", "key": {"[1]": {"test": "Body weight gain and food intake in Zucker rats, chronic treatment", "format": "in vivo, rat", "conditions": "5 mg/kg i.p. daily 15 days", "description": "(§1) All the experiments were carried out in obese (fa/fa) and thin (Fa/?) male Zucker rats 8-9 weeks of age. The animals were placed in individual cages in a room with controlled temperature, humidity and lighting (light/darkness cycles of 12 hours), and with free access to food and water (standard laboratory diet).\n(§2) OLHHA was dissolved in a vehicle containing 5% Tween 80 in saline and intraperitoneally (i.p.) administered at a dose of 5 mg/kg (volume of 1 ml/kg body weight) at the beginning of the light cycle (9:00 am-10:00 am) for 15 consecutive days. Two hours after the last injection, the animals were euthanized using sodium pentobarbital (50 mg/kg, i.p.) and blood and liver samples were extracted. The blood was centrifuged at 2100×g for 8 minutes at 4° C. and the obtained plasma was kept at −80° C. for subsequent analysis. The liver samples were also stored at −80° C.\nAnimals received an injection (i.p.) of vehicle or OLHHA (5 mg/kg) daily for 15 consecutive days. For this experiment, 8 rats were used per group. The total body weight gain (g) and the accumulated food intake (g/kg of body weight) were evaluated daily."}, "Zucker rats": {"test_system": "Zucker rats", "test": "Liver fat content and plasma triglyceride level of Zucker rats", "format": "in vivo, rat", "conditions": "obese Zucker rats, 5 mg/kg once a day 15 days", "description": "as §1, §2\nThe total liver fat content and the plasma triglyceride level were evaluated in thin and obese Zucker rats after a 15-day treatment with OLHHA (5 mg/kg, once a day). The samples for lipid analysis were obtained 2 hours after the last injection.\nThe Bligh & Dyer method (Bligh and Dyer, 1959) was followed for liver fat quantification. […] The fat content was expressed as % of tissue weight. […]"}, "obese rats [2]": {"test_system": "obese rats", "test": "Hepatic serum transaminase level in obese rats", "format": "in vivo, rat", "conditions": "5 mg/kg i.p. 15 days", "description": "as §1, §2\nCommercial kits were used for determining hepatic serum transaminases and they were analyzed in a Hitachi 737 automatic biochemistry analyzer."}, "obese rats [3]": {"test_system": "obese rats", "test": "Circulating pro-inflammatory cytokine level in obese rats (ELISA)", "format": "in vivo, rat", "conditions": "5 mg/kg i.p. 15 days", "description": "as §1, §2\nCirculating IL-6 and TNF-α levels were measured by means of ELISAs using commercial kits (Abcam)."}, "obese rats [4]": {"test_system": "obese rats", "test": "Kidney function-related plasma protein level in obese rats", "format": "in vivo, rat", "conditions": "5 mg/kg i.p. 15 days", "description": "as §1, §2\nCommercial kits were used for determining serum creatinine and urea and they were analyzed in a Hitachi 737 automatic biochemistry analyzer."}, "liver of Zucker rats": {"test_system": "liver of Zucker rats", "test": "Gene expression (RT-qPCR) in the liver of Zucker rats", "format": "in vivo, rat", "description": "as §1, §2\nFor isolating total RNA from the liver, the samples were homogenized in Trizol and then purified using Qiagen RNeasy Minelute Cleanup Kit (selectively eliminates most molecules smaller than 200 nucleotides), also including a DNAse treatment. The total mRNA concentration was quantified using a spectrophotometer. In all the cases, the A260/280 ratio was between 1.8 and 2. Complementary DNA synthesis was carried out by reverse transcription using the Transcriptor Reverse Transcriptase kit (Transcriptor RT, Roche Diagnostic). For real-time PCR (RT-qPCR), an ABI PRISM® 7300 Real-Time PCR System (Applied Biosystems) and TaqMan probes were used. The single-product amplification was confirmed by means of analyzing the melting curves. The values of each sample were normalized with respect to the beta-actin constitutive gene. The relative quantification was calculated by means of the ΔΔCt method and normalized to the control group. The Taqman probes were obtained from the rat genome database of Applied Biosystems (http://bioinfo.appliedbiosystems.com/genome-database/gene-expression.html): […]"}, "hERG channel": {"biological_target": "T1, hERG channel (Homo sapiens, UniProt Q12809)", "T1 construct": "expressed in transfected cells; host or cells: HEK293", "T1 sequence (Q12809 whole entry)": "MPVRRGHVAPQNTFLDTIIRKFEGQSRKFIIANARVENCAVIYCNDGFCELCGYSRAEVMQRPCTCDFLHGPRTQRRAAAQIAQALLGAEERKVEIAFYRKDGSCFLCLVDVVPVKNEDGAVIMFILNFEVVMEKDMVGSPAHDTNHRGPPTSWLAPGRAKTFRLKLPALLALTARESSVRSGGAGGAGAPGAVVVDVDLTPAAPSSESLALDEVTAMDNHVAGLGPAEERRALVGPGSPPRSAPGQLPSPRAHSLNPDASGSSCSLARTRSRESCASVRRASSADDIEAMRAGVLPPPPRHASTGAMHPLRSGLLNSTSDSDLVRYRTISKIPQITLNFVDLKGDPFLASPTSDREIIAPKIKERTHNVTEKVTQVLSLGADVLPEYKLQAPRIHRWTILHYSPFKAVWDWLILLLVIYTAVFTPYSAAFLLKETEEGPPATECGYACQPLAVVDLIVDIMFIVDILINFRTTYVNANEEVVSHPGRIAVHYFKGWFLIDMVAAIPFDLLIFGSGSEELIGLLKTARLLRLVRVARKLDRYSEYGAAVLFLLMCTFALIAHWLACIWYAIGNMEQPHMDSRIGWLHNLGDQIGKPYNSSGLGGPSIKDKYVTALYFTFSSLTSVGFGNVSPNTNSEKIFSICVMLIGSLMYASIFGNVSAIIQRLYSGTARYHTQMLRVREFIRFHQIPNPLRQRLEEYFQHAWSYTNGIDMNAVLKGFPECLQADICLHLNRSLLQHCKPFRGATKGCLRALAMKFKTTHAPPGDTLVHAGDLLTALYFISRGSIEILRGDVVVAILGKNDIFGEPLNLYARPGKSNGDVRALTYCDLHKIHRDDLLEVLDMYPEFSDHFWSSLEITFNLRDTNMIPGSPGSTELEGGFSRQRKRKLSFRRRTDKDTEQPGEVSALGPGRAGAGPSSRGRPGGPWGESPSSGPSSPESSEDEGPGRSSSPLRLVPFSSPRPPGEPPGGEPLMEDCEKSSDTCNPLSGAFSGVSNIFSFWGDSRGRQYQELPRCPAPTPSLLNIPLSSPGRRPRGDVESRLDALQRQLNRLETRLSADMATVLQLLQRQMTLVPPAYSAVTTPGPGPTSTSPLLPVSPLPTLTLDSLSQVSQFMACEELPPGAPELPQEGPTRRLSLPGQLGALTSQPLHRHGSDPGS", "test": "hERG channel functional assay (FluxOR thallium fluorescence)", "format": "cell-based", "conditions": "HEK-293 cells expressing hERG", "description": "The hERG channel assay was used to identify if OLHHA may cause cardiotoxicity (FIG. 8). […] FluxOR™ is protected by AM groups which prevent fluorescence outside the cell. When it enters the cell, esterases in the cytosol remove the AM groups, and FluxOR™ will be converted to its active form in which it is capable of binding to thallium, which moves into the cytoplasm through the hERG channel, resulting in the emission of fluorescence. HEK293 cells expressing the hERG channel were seeded in poly-D-lysine-treated, black 96-well plates and incubated for 24 hours. […] Next, 20 μl of FluxOR™ dissolved in the assay buffer were added. The fluorochrome was incubated with the cells for 1 hour at room temperature. Next, the plates were washed with 50 μl of assay buffer and the compound OLHHA at a dilution of 1:200 (2 μl of OLHHA/400 μl of assay buffer) was added using an EP3 station. […] The plates were incubated with OLHHA for 30 minutes and then read in a […], which added 5 μl of stimulation buffer (Tl2SO4+K2SO4), and read the fluorescence for 120 s, which allowed analyzing channel kinetics."}, "CYP2C9": {"biological_target": "CYP2C9 (Homo sapiens, UniProt P11712)", "sequence (P11712 whole entry)": "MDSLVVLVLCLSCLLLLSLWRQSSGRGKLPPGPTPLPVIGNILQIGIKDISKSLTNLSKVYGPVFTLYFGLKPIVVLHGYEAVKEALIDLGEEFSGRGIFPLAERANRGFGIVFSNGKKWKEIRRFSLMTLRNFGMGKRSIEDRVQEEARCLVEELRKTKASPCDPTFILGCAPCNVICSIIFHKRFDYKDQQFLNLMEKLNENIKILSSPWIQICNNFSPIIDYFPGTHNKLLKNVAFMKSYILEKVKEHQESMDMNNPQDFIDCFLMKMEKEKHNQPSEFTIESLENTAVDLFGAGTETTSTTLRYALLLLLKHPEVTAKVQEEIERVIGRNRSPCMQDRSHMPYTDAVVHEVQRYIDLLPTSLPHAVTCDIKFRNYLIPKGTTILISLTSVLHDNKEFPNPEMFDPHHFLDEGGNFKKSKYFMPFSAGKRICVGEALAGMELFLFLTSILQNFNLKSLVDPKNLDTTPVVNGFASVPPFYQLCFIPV", "test": "P450 cytochrome inhibition fluorometric assay CYP2C9", "format": "in vitro ADME", "description": "However, most human CYPs tolerate acetonitrile. […] OLHHA was tested in triplicate."}, "[5]": {"test_system": "liver of obese Zucker rats", "test": "Histological evaluation of fatty liver and Caspase-3 in obese Zucker rats", "format": "in vivo, rat", "description": "as §1, §2\nThe histological analysis of the livers of obese Zucker rats treated with the vehicle or with OLHHA confirmed the biochemistry total fat quantification results."}, "[6]": {"test_system": "liver of obese Zucker rats", "test": "Protein levels of lipid metabolism enzymes in the liver of obese Zucker rats", "format": "in vivo, rat", "conditions": "change seen in mRNA (reduction)", "description": "as §1, §2"}, "CYP3A4": {"biological_target": "CYP3A4 (Homo sapiens, UniProt P08684)", "sequence (P08684 whole entry)": "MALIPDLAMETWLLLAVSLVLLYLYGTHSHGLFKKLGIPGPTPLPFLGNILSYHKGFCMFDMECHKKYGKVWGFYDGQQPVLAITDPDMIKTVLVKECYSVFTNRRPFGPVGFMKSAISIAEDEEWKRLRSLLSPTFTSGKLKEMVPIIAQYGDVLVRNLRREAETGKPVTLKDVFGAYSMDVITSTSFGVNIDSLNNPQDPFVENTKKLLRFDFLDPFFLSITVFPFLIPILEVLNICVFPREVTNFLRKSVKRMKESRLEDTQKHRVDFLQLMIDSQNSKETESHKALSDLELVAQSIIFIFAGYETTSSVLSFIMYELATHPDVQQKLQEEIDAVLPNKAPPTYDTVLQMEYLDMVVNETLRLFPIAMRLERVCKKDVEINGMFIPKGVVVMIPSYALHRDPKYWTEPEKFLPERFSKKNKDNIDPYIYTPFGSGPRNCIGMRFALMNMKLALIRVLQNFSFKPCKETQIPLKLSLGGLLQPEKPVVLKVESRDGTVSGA", "test": "biochemical"}, "CYP2D6": {"biological_target": "CYP2D6 (Homo sapiens, UniProt P10635)", "sequence (P10635 whole entry)": "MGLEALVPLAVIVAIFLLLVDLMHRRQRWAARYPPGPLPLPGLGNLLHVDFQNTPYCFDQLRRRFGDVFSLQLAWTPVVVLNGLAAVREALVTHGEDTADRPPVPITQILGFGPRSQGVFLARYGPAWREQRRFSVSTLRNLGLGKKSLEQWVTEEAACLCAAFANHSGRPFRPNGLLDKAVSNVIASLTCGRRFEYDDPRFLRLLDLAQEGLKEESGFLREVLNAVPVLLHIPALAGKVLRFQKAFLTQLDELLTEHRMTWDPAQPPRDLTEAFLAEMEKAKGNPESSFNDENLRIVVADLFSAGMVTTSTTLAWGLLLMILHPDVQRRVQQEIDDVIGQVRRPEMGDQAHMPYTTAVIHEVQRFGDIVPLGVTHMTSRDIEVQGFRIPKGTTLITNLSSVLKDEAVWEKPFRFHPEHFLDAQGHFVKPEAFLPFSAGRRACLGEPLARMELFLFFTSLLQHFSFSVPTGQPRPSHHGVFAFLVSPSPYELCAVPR", "test": "biochemical"}, "[7]": {"conditions": "obese Zucker rats liver, immunohistochemistry"}, "[8]": {"conditions": "obese Zucker rats, chronic treatment, vs vehicle"}}, "note": "Values joined by “and” are separate entries in the source; they are usually repeats but may differ in a detail not shown here. Equal entries are not always repeated. Where two headings read alike, the source gives them in different places.", "data": [{"compound": "CCCCCCCC/C=C\\CCCCCCCC(=O)NC(C)Cc1ccc(O)c(O)c1", "note": "(stereo not shown) [OLHHA, N-(1-(3,4-dihydroxyphenyl)propan-2-yl)oleamide]", "values": [{"measurement": "accumulated food intake", "setting": "[1]; obese Zucker rats", "result": "did not cause any effect"}, {"measurement": "body weight gain", "setting": "[1]; obese Zucker rats", "result": "did not cause any effect"}, {"measurement": "accumulated food intake", "setting": "[1]; thin Zucker rats, starting on the fifth day, vs vehicle", "result": "significant reduction"}, {"measurement": "body weight gain", "setting": "[1]; thin Zucker rats, vs vehicle", "result": "significant inhibition"}, {"measurement": "circulating triglycerides", "setting": "Zucker rats; five-fold increase in obese vs thin", "result": "prevented these increases"}, {"measurement": "total liver fat content", "setting": "Zucker rats; three-fold increase in obese vs thin", "result": "prevented these increases"}, {"measurement": "aspartate aminotransferase (AST) level", "setting": "obese rats [2]; not statistically significant", "result": "reduction"}, {"measurement": "alanine aminotransferase (ALT) level", "setting": "obese rats [2]; statistically significant (p<0.05)", "result": "reduction"}, {"measurement": "gamma-glutamyl transpeptidase (GGt)", "setting": "obese rats [2]; vs vehicle", "result": "no effect was observed"}, {"measurement": "plasma IL6 levels", "setting": "obese rats [3]", "result": "no changes were detected"}, {"measurement": "TNF-α level", "setting": "obese rats [3]; did not reach a degree of significance", "result": "drop"}, {"measurement": "creatinine levels", "setting": "obese rats [4]", "result": "did not affect"}, {"measurement": "urea levels", "setting": "obese rats [4]; vs vehicle, p<0.001", "result": "significant reduction"}, {"measurement": "ACOX mRNA expression", "setting": "liver of Zucker rats; 5 mg/kg i.p. 15 days", "result": "significant increase"}, {"measurement": "FAS mRNA expression (fatty acid biosynthesis)", "setting": "liver of Zucker rats; 5 mg/kg i.p. 15 days", "result": "significant reduction"}, {"measurement": "HMG-CoAR mRNA expression (cholesterol biosynthesis)", "setting": "liver of Zucker rats; 5 mg/kg i.p. 15 days", "result": "significant reduction"}, {"measurement": "INSIG2 mRNA expression", "setting": "liver of Zucker rats; 5 mg/kg i.p. 15 days", "result": "significantly increased"}, {"measurement": "NAPE-PLD mRNA expression", "setting": "liver of Zucker rats; 5 mg/kg i.p. 15 days", "result": "significantly reduced"}, {"measurement": "L-FABP mRNA level", "setting": "liver of Zucker rats; chronic treatment", "result": "increased"}, {"measurement": "IC50", "setting": "hERG channel; maximum concentration 150 μM", "result": "> 150", "unit": "µM"}, {"measurement": "IC50", "setting": "CYP2C9; degree of inhibition, read-out: CYP2C9 Inhibitor category", "result": "1 to 10", "unit": "µM"}, {"measurement": "IC50", "setting": "CYP2C9; fluorometric assay, maximum dose 105 μM, read-out: CYP2C9 IC50", "result": 6.8, "unit": "µM"}, {"measurement": "expression of activated Caspase-3", "setting": "[5]; [7]", "result": "reduced the expression"}, {"measurement": "expression of total Caspase-3", "setting": "[5]; [7]", "result": "reduced the expression"}, {"measurement": "apoptotic activity in liver", "setting": "[5]; [8]", "result": "reduction in apoptotic activity"}, {"measurement": "liver fat content (hematoxylin-eosin and oil red staining)", "setting": "[5]; [8]", "result": "reduction in liver fat content"}, {"measurement": "FAS protein expression level", "setting": "[6]", "result": "confirmed at the protein expression level"}, {"measurement": "HMG-CoAR protein expression level", "setting": "[6]", "result": "confirmed at the protein expression level"}, {"measurement": "IC50", "setting": "CYP3A4", "result": "14.8 µM and > 10 µM"}, {"measurement": "IC50", "setting": "CYP2D6", "result": "23.3 µM and > 10 µM"}]}, {"compound": "CC(C)COCC(CN(Cc1ccccc1)c1ccccc1)N1CCCC1", "note": "(stereo not shown) [bepridil, reference compound]", "values": [{"measurement": "IC50 at 30 min", "setting": "hERG channel; human, HEK293 cells expressing the hERG channel, pH 7.4, probe FluxOR fluorescent dye / thallium ions, standard control inhibitors, unit M", "result": 2.2, "unit": "µM"}]}]}
